# What was measured:
# MRSP 16125 = test: Time-killing curve, inoculum 10^6 CFU/ml (MIC 0.5 μg/ml); format: cell-based, Staphylococcus pseudintermedius
# Experimental: (§1) The objective of this study is to assess in vitro the time-killing curves of oxyclozanide against four strains of Methicillin-Resistant Staphylococcus from dogs.
# (§2) Two Methicillin-Resistant Staphylococcus aureus (MRSA) and two Methicillin-Resistant Staphylococcus pseudintermedius (MRSP) isolated from the clinics have been tested.
# (§3) The assessment of time-killing curves has been realized by a broth macrodilution method (Mueller-Hinton II Broth).
# (§4) Oxyclozanide is diluted in (DMSO) into sterile tubes in order to obtain the following concentrations from 800 to 6.25 μg/ml. Those concentrations and stock standard solution are then diluted (1/10) in Mueller-Hinton II Broth in order to obtain the following concentrations from […] (See Table 2).
# (§5) Each operation is performed under sterile conditions. Each working standard solution (10*the final active ingredient concentration) is distributed in tubes (1 ml, for a final volume of 10 ml after addition of 9 ml of inoculum). One tube without active ingredient is used as growth control (Concentration=0).
# (§6) Bacterial isolates are sub-cultured from one cryobead on Columbia agar supplemented with 5% of blood. Pure cultures are incubated during 18-24 hours at 37° C. Three to five isolated colonies of similar appearance are selected from a previous culture and transferred into tubes containing 9 ml of Mueller-Hinton II Broth. The broth is incubated during 12-18 hours at 37° C. 0.5 to 1 ml of this broth is inoculated to another Mueller-Hinton II Broth 9 ml tube which is incubated during 3 to 4 hours at 37° C. to reach the exponential growth phase. The bacterial inoculum grown exponential phase is suspended to an optical density of McFarland standard scale 0.5 equivalent to a bacterial density of 10^8 CFU/ml and then adjusted to a concentration of about 5.10^5 CFU/ml as indicated by the guideline CLSI M26-A and to a second inoculum tested: 10^6 CFU/ml.
# (§7) 9 ml of bacterial inoculum grown to exponential phase is added to 1 ml of active ingredient (or Mueller Hinton II Broth for the growth control). Tubes are incubated at 35° C. during 24 hours.
# (§8) At times 0, 2, 4, 6 and 24 hours, 100 μl of broth of each tube is sampled and diluted in microplates:
# (§9) Each well is re-cultured by streaking 10 μl on Columbia agar supplemented with 5% of blood. Plates are incubated at 37° C. during 18-24 hours incubation. Thus, residual bacterial concentrations are determined (CFU/ml). Results are expressed in log10 values of CFU/ml over-time in broth. Due to the procedure used, the minimal bacterial concentration that can be assessed is 10^2 CFU/ml.
# MRSA 16110 = test: Time-killing curve, inoculum 5.10^5 CFU/ml (MIC 1 μg/ml); format: cell-based, Staphylococcus aureus
# Experimental: as §1, §2, §3, §4, §5, §6, §7, §8, §9
smiles,measurement,setting,value
O=C(Nc1cc(Cl)cc(Cl)c1O)c1c(O)c(Cl)cc(Cl)c1Cl [Oxyclozanide],Counting results,"MRSP 16125; 1 MIC, 0 h",1.000E+06 CFU/ml
same,Counting results,"MRSP 16125; 1 MIC, 2 h",1.000E+06 CFU/ml
same,Counting results,"MRSP 16125; 1 MIC, 4 h",1.500E+05 CFU/ml
same,Counting results,"MRSP 16125; 1 MIC, 6 h",1.000E+05 CFU/ml
same,Counting results,"MRSP 16125; 1 MIC, 24 h",4.100E+06 CFU/ml
same,Counting results,"MRSP 16125; 2 MIC, 0 h",1.000E+06 CFU/ml
same,Counting results,"MRSP 16125; 2 MIC, 2 h",1.600E+03 CFU/ml
same,Counting results,"MRSP 16125; 2 MIC, 4 h",1.000E+02 CFU/ml
same,Counting results,"MRSP 16125; 2 MIC, 6 h",1.000E+02 CFU/ml
same,Counting results,"MRSP 16125; 2 MIC, 24 h",1.000E+02 CFU/ml
same,Counting results,"MRSP 16125; 4 MIC, 0 h",1.000E+06 CFU/ml
same,Counting results,"MRSP 16125; 4 MIC, 2 h",5.000E+02 CFU/ml
same,Counting results,"MRSP 16125; 4 MIC, 4 h",1.000E+02 CFU/ml
same,Counting results,"MRSP 16125; 4 MIC, 6 h",1.000E+02 CFU/ml
same,Counting results,"MRSP 16125; 4 MIC, 24 h",1.000E+02 CFU/ml
same,Counting results,"MRSP 16125; 8 MIC, 0 h",1.000E+06 CFU/ml
same,Counting results,"MRSP 16125; 8 MIC, 2 h",1.000E+02 CFU/ml
same,Counting results,"MRSP 16125; 8 MIC, 4 h",1.000E+02 CFU/ml
same,Counting results,"MRSP 16125; 8 MIC, 6 h",1.000E+02 CFU/ml
same,Counting results,"MRSP 16125; 8 MIC, 24 h",1.000E+02 CFU/ml
same,Counting results,"MRSP 16125; 16 MIC, 0 h",1.000E+06 CFU/ml
same,Counting results,"MRSP 16125; 16 MIC, 2 h",1.000E+02 CFU/ml
same,Counting results,"MRSP 16125; 16 MIC, 4 h",1.000E+02 CFU/ml
same,Counting results,"MRSP 16125; 16 MIC, 6 h",1.000E+02 CFU/ml
same,Counting results,"MRSP 16125; 16 MIC, 24 h",1.000E+02 CFU/ml
same,Time to obtain bactericidal effect at 4 MIC,"MRSP 16125; 16125/10^6 CFU/ml, >=3 log10 decrease in CFU",2 h
same,Counting results,"MRSP 16125; ¼ MIC, 0 h",1.000E+06 CFU/ml
same,Counting results,"MRSP 16125; ¼ MIC, 2 h",1.500E+06 CFU/ml
same,Counting results,"MRSP 16125; ¼ MIC, 4 h",1.000E+07 CFU/ml
same,Counting results,"MRSP 16125; ¼ MIC, 6 h",1.000E+08 CFU/ml
same,Counting results,"MRSP 16125; ¼ MIC, 24 h",2.600E+09 CFU/ml
same,Counting results,"MRSP 16125; ½ MIC, 0 h",1.000E+06 CFU/ml
same,Counting results,"MRSP 16125; ½ MIC, 2 h",1.800E+06 CFU/ml
same,Counting results,"MRSP 16125; ½ MIC, 4 h",2.800E+06 CFU/ml
same,Counting results,"MRSP 16125; ½ MIC, 6 h",3.400E+06 CFU/ml
same,Counting results,"MRSP 16125; ½ MIC, 24 h",1.900E+08 CFU/ml
same,Counting results,"MRSA 16110; 1 MIC, 0 h",4.100E+05 CFU/ml
same,Counting results,"MRSA 16110; 1 MIC, 2 h",9.300E+04 CFU/ml
same,Counting results,"MRSA 16110; 1 MIC, 4 h",6.500E+04 CFU/ml
same,Counting results,"MRSA 16110; 1 MIC, 6 h",1.100E+05 CFU/ml
same,Counting results,"MRSA 16110; 1 MIC, 24 h",6.100E+05 CFU/ml
same,Counting results,"MRSA 16110; 2 MIC, 0 h",4.100E+05 CFU/ml
same,Counting results,"MRSA 16110; 2 MIC, 2 h",3.300E+03 CFU/ml
same,Counting results,"MRSA 16110; 2 MIC, 4 h",1.800E+03 CFU/ml
same,Counting results,"MRSA 16110; 2 MIC, 6 h",4.000E+02 CFU/ml
same,Counting results,"MRSA 16110; 2 MIC, 24 h",1.000E+02 CFU/ml
same,Counting results,"MRSA 16110; 4 MIC, 0 h",4.100E+05 CFU/ml
same,Counting results,"MRSA 16110; 4 MIC, 2 h",3.000E+02 CFU/ml
same,Counting results,"MRSA 16110; 4 MIC, 4 h",1.000E+02 CFU/ml
same,Counting results,"MRSA 16110; 4 MIC, 6 h",1.000E+02 CFU/ml
same,Counting results,"MRSA 16110; 4 MIC, 24 h",1.000E+02 CFU/ml
same,Counting results,"MRSA 16110; 8 MIC, 0 h",4.100E+05 CFU/ml
same,Counting results,"MRSA 16110; 8 MIC, 2 h",2.000E+02 CFU/ml
same,Counting results,"MRSA 16110; 8 MIC, 4 h",1.000E+02 CFU/ml
